Laboratory results reported in patent US11033556B2, “Bicyclic sulfonamides” (priority 2019, dated 2021).

These molecules were tested on genotype D HBV (assay: HBV-DNA Antiviral Assay Using HepG2.117 Cells). Conditions: Hepatitis B virus, HepG2.117, 96 h, intracellular HBV DNA by qPCR, day 4.
Format: cell-based
Method: The following assay procedure describes the HBV antiviral assay, using HepG2.117 cells, which carry a stably integrated genotype D HBV genome under the control of a Tet-off promoter, and intracellular HBV DNA quantification as endpoint. Cell viability is assessed in parallel by measuring the intracellular ATP content using ATPlite (Perkin Elmer).
On day 0, HepG2.117 cells (which are maintained in routine cell culture with doxycycline present in the medium at a final concentration of 1 μg/mL) were seeded in 96-well plates (white with clear bottom) at a density of 2.0×10^4 cells/well (0.1 mL/well) in medium without doxycycline to induce pgRNA transcription and subsequent formation of HBV particles. The cells were incubated at 37° C. and 5% CO2.
On day 1, medium was removed from each well, the test articles were diluted in culture medium without doxcycyline and 100 μL was added to cell culture wells (9 concentrations, 4-fold dilution). For each plate, 6 untreated (merely DMSO) wells were included. The final concentration of DMSO in the culture medium was 2%. Each plate was prepared in duplicate (one for HBV DNA extraction, one for ATPlite measurement). The cells were incubated at 37° C. and 5% CO2 for 3 days.
On day 4, cell viability was assessed using ATPlite and cell lysates were prepared for HBV DNA extraction and subsequent quantification by qPCR.
Medium was removed from each well and 100 μL of 0.33% NP-40 in H2O was added to each well. Plates were sealed, incubated at 4° C. for 5 mins, vortexed extensively and centrifuged briefly. Next, 35 μL of lysate was added to 65 μL QuickExtract DNA Extraction Solution (Epicentre) in a PCR plate for each well. PCR plate was incubated at 65° C. for 6 mins, 98° C. for 2 mins and finally cooled to 4° C. HBV DNA was then quantified by qPCR with HBV-specific primers and probes as specified in Table 4 using the Bio-Rad SSOAdvanced Universal Probes Supermix on a CFX96 machine (Bio-Rad). The PCR cycle program consisted of 95° C. for 3 mins, followed by 40 cycles at 95° C. for 10 sec and 60° C. for 30 sec.
A DNA standard was prepared by dilution of an IDT gBlock corresponding to the amplicon with concentrations ranging from 10^2 to 10^8 copies/input (i.e. per 4 μL) and used to generate a standard curve by plotting Cq values vs. HBV DNA standard concentration. The quantity of HBV DNA in each sample was determined by interpolating from the standard curve.
Cell viability was calculated as follows: % Cell viability=(luminescence value of test sample)/(average luminescence value of 2% DMSO control)×100%. HBV DNA inhibition was calculated as follows: 100−(HBV DNA copy number of test sample)/(average HBV DNA copy number of 2% DMSO control)×100%. No normalization to entecavir was required due to the excellent dynamic window of this assay. The CC50, EC50 and EC90 values were determined by dose-response curves fitted by GraphPad Prism using “log (agonist) vs. response—Variable slope”.

Q: How did the EC50 turn out when `C=C[C@H]1CCc2c(cn(C)c2C(=O)Nc2ccc(F)c(C#N)c2)S(=O)(=O)N1` [Compound 8] was run?
A: 1 to 10 nM

Q: Which EC50 does the source give for `C=C[C@@]1(CO)CCc2c(cn(C)c2C(=O)Nc2ccc(F)c(C(F)(F)F)c2)S(=O)(=O)N1` [Compound 9A] here?
A: 10 to 100 nM

Q: With `C=C[C@]1(CO)CCc2c(cn(C)c2C(=O)Nc2ccc(F)c(C(F)(F)F)c2)S(=O)(=O)N1` [Compound 9B] as the molecule, how does the EC50 read?
A: 10 to 100 nM

Q: With `C=C[C@@]1(CO)CCc2c(cn(C)c2C(=O)Nc2ccc(F)c(C#N)c2)S(=O)(=O)N1` [Compound 10A] as the molecule, how does the EC50 read?
A: 10 to 100 nM

Q: Which EC50 does the source give for `C=C[C@]1(CO)CCc2c(cn(C)c2C(=O)Nc2ccc(F)c(C#N)c2)S(=O)(=O)N1` [Compound 10B] here?
A: 10 to 100 nM

Q: For `C=C[C@](C)(O)[C@H]1CCc2c(cn(C)c2C(=O)Nc2ccc(F)c(C#N)c2)S(=O)(=O)N1` [Compound 11A], which EC50 is on record?
A: 1 to 10 nM

Q: How did the EC50 turn out when `C=C[C@@](C)(O)[C@H]1CCc2c(cn(C)c2C(=O)Nc2ccc(F)c(C#N)c2)S(=O)(=O)N1` [Compound 11B] was run?
A: 1 to 10 nM

Q: `C#C[C@](C)(O)[C@H]1CCc2c(cn(C)c2C(=O)Nc2ccc(F)c(C#N)c2)S(=O)(=O)N1` [Compound 12A] was tested. Which EC50 did it give?
A: 10 to 100 nM

Q: For `C#C[C@@](C)(O)[C@H]1CCc2c(cn(C)c2C(=O)Nc2ccc(F)c(C#N)c2)S(=O)(=O)N1` [Compound 12B], which EC50 is on record?
A: 10 to 100 nM

Q: For `Cn1cc2c(c1C(=O)Nc1ccc(F)c(C#N)c1)OC[C@H](CC=C(F)F)NS2(=O)=O` [Compound 13], which EC50 is on record?
A: 1 to 10 nM

Q: Which EC50 does the source give for `C=C[C@H](O)[C@H]1COc2c(cn(C)c2C(=O)Nc2ccc(F)c(C#N)c2)S(=O)(=O)N1` [Compound 14A] here?
A: 1 to 10 nM

Q: How did the EC50 turn out when `C=C[C@@H](O)[C@H]1COc2c(cn(C)c2C(=O)Nc2ccc(F)c(C#N)c2)S(=O)(=O)N1` [Compound 14B] was run?
A: 1 to 10 nM

Q: For `C=C[C@]1(C)COc2c(cn(C)c2C(=O)Nc2ccc(F)c(C#N)c2)S(=O)(=O)N1` [Compound 15A], which EC50 is on record?
A: 1 to 10 nM

Q: `C=C[C@@]1(C)COc2c(cn(C)c2C(=O)Nc2ccc(F)c(C#N)c2)S(=O)(=O)N1` [Compound 15B] was tested. Which EC50 did it give?
A: 1 to 10 nM

Q: Which EC50 does the source give for `C=CC[C@]1(C)COc2c(cn(C)c2C(=O)Nc2ccc(F)c(C#N)c2)S(=O)(=O)N1` [Compound 16A] here?
A: 1 to 10 nM

Q: For `C=CC[C@@]1(C)COc2c(cn(C)c2C(=O)Nc2ccc(F)c(C#N)c2)S(=O)(=O)N1` [Compound 16B], which EC50 is on record?
A: 1 to 10 nM

Q: How did the EC50 turn out when `C=CC[C@H](O)[C@H]1COc2c(cn(C)c2C(=O)Nc2ccc(F)c(C#N)c2)S(=O)(=O)N1` [Compound 17A] was run?
A: 1 to 10 nM

Q: For `C=CC[C@@H](O)[C@H]1COc2c(cn(C)c2C(=O)Nc2ccc(F)c(C#N)c2)S(=O)(=O)N1` [Compound 17B], which EC50 is on record?
A: 1 to 10 nM

Q: How did the EC50 turn out when `C#C[C@H](O)[C@H]1COc2c(cn(C)c2C(=O)Nc2ccc(F)c(C#N)c2)S(=O)(=O)N1` [Compound 18] was run?
A: 1 to 10 nM

Q: How did the EC50 turn out when `CC#C[C@H](O)[C@H]1COc2c(cn(C)c2C(=O)Nc2ccc(F)c(C#N)c2)S(=O)(=O)N1` [Compound 19A] was run?
A: 1 to 10 nM

Q: `CC#C[C@@H](O)[C@H]1COc2c(cn(C)c2C(=O)Nc2ccc(F)c(C#N)c2)S(=O)(=O)N1` [Compound 19B] was tested. Which EC50 did it give?
A: 1 to 10 nM

Q: With `C=C[C@@](O)([C@H]1COc2c(cn(C)c2C(=O)Nc2ccc(F)c(C(F)(F)F)c2)S(=O)(=O)N1)C(F)(F)F` [Compound 20] as the molecule, how does the EC50 read?
A: 1 to 10 nM

Q: Which EC50 does the source give for `C=C[C@](O)([C@@H]1COc2c(cn(C)c2C(=O)Nc2ccc(F)c(C#N)c2)S(=O)(=O)N1)C(F)(F)F` [Compound 21] here?
A: 10 to 100 nM

Q: Which EC50 does the source give for `CC#C[C@H](O)[C@H]1COc2c(cn(C)c2C(=O)Nc2ccc(F)c(C(F)(F)F)c2)S(=O)(=O)N1` [Compound 22A] here?
A: 10 to 100 nM

Q: For `CC#C[C@@H](O)[C@H]1COc2c(cn(C)c2C(=O)Nc2ccc(F)c(C(F)(F)F)c2)S(=O)(=O)N1` [Compound 22B], which EC50 is on record?
A: 1 to 10 nM

Q: How did the EC50 turn out when `C=C[C@@]1(C)COc2c(cn(C)c2C(=O)Nc2ccc(F)c(C(F)(F)F)c2)S(=O)(=O)N1` [Compound 23A] was run?
A: 1 to 10 nM

Q: For `C=C[C@]1(C)COc2c(cn(C)c2C(=O)Nc2ccc(F)c(C(F)(F)F)c2)S(=O)(=O)N1` [Compound 23B], which EC50 is on record?
A: 1 to 10 nM

Q: For `C=C[C@H]1COc2c(cn(C)c2C(=O)Nc2ccc(F)c(C(F)(F)F)c2)S(=O)(=O)N1` [Compound 24], which EC50 is on record?
A: 1 to 10 nM
